Experimental findings from US20250041286A1, “CANCER TREATMENT USING KETOTIFEN IN COMBINATION WITH A CHECKPOINT INHIBITOR” (Materia Therapeutics Inc., priority 2021, published 2025) are described below.

The structures appear in SMILES notation. Entries after “also recorded” stand apart in the source; their conditions may differ.

One series deals with NIH3T3 cells. Briefly: NIH3T3 cell viability assessment. It is filed as cell-based, murine. Particulars: ketotifen or control for 2 or 24 hours.
In a further series the test system is MCA205 cells. Put plainly: Re-challenge of long-term survivors with MCA205 cells. The conditions noted are these: re-challenge with 2.5×10^5 MCA205 cells s.c., 80 days after resection of primary tumors. The class given is in vivo, mouse. An excerpt: Since doxorubicin has potential to establish favorable immunogenic conditions within the TME, which could affect the efficacy of immunotherapy, it was investigated if this immune response is preserved against rechallenge of long-term survivors with the same cell line. Mice were considered long-term survivors if no tumor was detected 80 days after surgical resection of MCA205 primary tumors. Five long-term survivors from each treatment group were further re-challenged with 2.5×10^5 MCA205 cells injected subcutaneously into the flank region. Cells were prepared in 50 μl of PBS. Naïve mice were implanted in parallel as controls.

Series [1] relates to K7M2wt tumors. Briefly: qPCR mRNA expression levels in tumors. Particulars: 10 mg/kg ketotifen, compared with the effect in MCA205. It is filed as in vivo, mouse. Here is the method: Total RNA was isolated from breast tumors according to the standard Trizol-based protocol (Invitrogen), and cDNA synthesis was performed using reverse transcriptase III (RT-III) enzyme and random hexamers (Invitrogen). Real-time polymerase chain reaction was performed using Sybr Fast Universal Master Mix (KAPA). Reactions were performed using a CFX-96 real-time PCR detection system (BioRad) at the following conditions: 95° C. for 2 minutes, 95° C. for 2 seconds, 60° C. for 20 seconds, 60° C. for 1 second, steps 2-4 for 39 cycles. Real-time PCR analysis and calculation of changes in gene expression between compared groups was performed using the ΔΔ^Ct method. Relative gene expression was normalized based on the expression of β-actin. For qPCR analysis, 3-5 biological samples were used per treatment and 3 technical replicates for each sample.
mRNA expression levels were evaluated in both mouse sarcoma models by qPCR, as described above.

Series [2] relates to K7M2wt tumors. Briefly: Hypoxia study, pimonidazole adduct immunofluorescence. It is filed as in vivo, mouse. Particulars: 10 mg/kg ketotifen. Here is the method:
Mice bearing orthotopic MCA205 or K7M2wt sarcoma tumors were injected (intraperitoneal) with 60 mg/kg of pimonidazole HCl at 2 hours prior to tumor removal. Tumors were removed, washed twice in 1×PBS for 10 minutes and incubated with 4% PFA overnight at 4° C. The fixative was aspirated, and samples were washed twice in 1×PBS for 10 min. Tissue samples were dehydrated in successive ethanol steps and xylene followed by paraffin embedding. Serial sections ([…]) of paraffin-embedded tissues were produced using the microtome (Accu-Cut SRM 200 Rotary Microtome, SAKURA), flattened out into water, and allowed to dry overnight at 37° C. Sections were then deparaffinized and rehydrated as routinely processed for histology. Slides were microwaved in TriSodium Citrate, blocked in serum solution, and incubated with mouse anti-pimonidazole RED 549 conjugate antibody (HP7-100Kit, 1:100) overnight at 4° C. The next day slides were washed, nuclei were stained with DAPI, and tissue sections were mounted. Immunofluorescence images of the slides were taken (FIG. 1A), and hypoxic area fraction across different treatment groups was normalized to DAPI staining.
Immunofluorescence staining for Ki67 and CD8, performed as described above, confirmed the activation status of recruited CD8^+ T cells in osteosarcoma tumors (K7M2wt tumors) (FIGS. 9C-9D). […]

Series [3] concerns MCA205 tumors. Briefly: Tumor-opening experiment (residual solid stress). The class given is in vivo, mouse. Particulars: 5 mg/kg and 10 mg/kg ketotifen. Here is the method:
Tumor-opening experiments were performed as an indicator of the amount of residual stress contained within the tissue, using the values of opening after cutting.

Series [4] has as its system MCA205 tumors. Put plainly: Ultrasound shear wave elastography of tumor stiffness. Particulars: 10 mg/kg daily ketotifen, dose that reduced stiffness the most. It is filed as in vivo, mouse. Here is the method: (§1) The mechanotherapeutic potential of ketotifen in reducing matrix stiffness was primarily assessed non-invasively and longitudinally using ultrasound elastography. Briefly, assessment of tumor elastic modulus was […] via shear wave elastography using a Philips EPIQ Elite Ultrasound scanner with an eL18-4 linear array, approved for clinical scanning was performed as described in previous study. Elastic modulus values of the areas of the region of interest (ROI) with the highest shear wave quality were obtained. The elastic modulus value presented is the average within the tumor region. Shear wave imaging of MCA205 tumors was performed prior to ketotifen treatment on day 7, to determine baseline level of tumor stiffness, after three days of treatment (day 11), and on the last day of treatment just before tumor removal (day 15). Ultrasound imaging of K7M2wt tumors was performed on day 24, 28, and 31. The effect of ketotifen on chemo-immunotherapy combination with regards to MCA205 tissue elasticity was assessed on day 7 before the first cycle of doxorubicin+anti-PD-L1 treatment, one day after second cycle (day 11) and two days after the last cycle (day 15). Ultrasound imaging of K7M2wt tumors was performed on day 22 (i.e., four days post daily ketotifen and before first cycle of combination treatment) and upon completion of treatment (day 32).

Series [5] has as its system K7M2wt tumors. Described as above. The class given is in vivo, mouse. The conditions noted are these: 10 mg/kg daily ketotifen. Here is the method:
as §1

Series [6] relates to MCA205 tumors. Briefly: Hyaluronan evaluation, HABP1 immunofluorescence. It is filed as in vivo, mouse. The conditions noted are these: daily ketotifen 10 mg/kg. Here is the method: (§2) Besides collagen, other structural components of tumor stroma can exert pressure and deform vessels. Such an example is the hyaluronan (e.g., hyaluronic acid), which binds to and retains excessive fluid generating gel-like regions within the tissue. Therefore, hyaluronic acid staining was performed in both sarcoma mouse models.
(§3) Tumors were removed from mice, washed twice in 1×PBS for 10 min, and incubated with 4% PFA overnight at 4° C. The fixative was aspirated, and samples were washed twice in 1×PBS for 10 min. Tissue samples were dehydrated in successive ethanol steps and xylene followed by paraffin embedding. Serial sections ([…]) of paraffin-embedded tissues were produced using the microtome (Accu-Cut SRM 200 Rotary Microtome, SAKURA), flattened out into water, and allowed to dry overnight at 37° C. Sections were then deparaffinized and rehydrated as routinely processed for histology. Tissue sections were subjected to antigen retrieval (microwave heat treatment with TriSodium Citrate, pH 6, for 20 min), washed with 1×TBS/0.025% Triton X-100 (TBS-T), and incubated in blocking solution (2% BSA, 0.2% Triton 100×) for 2 hours at room temperature. […] Hyaluronan was detected following incubation with streptavidin-FITC conjugate (Invitrogen, 1:1000) and nuclei were stained with DAPI stain at room temperature for 1 hour in the dark. […]

Series [7] has as its system K7M2wt tumors. Put plainly: Hyaluronan evaluation, HABP1 immunofluorescence. The class given is in vivo, mouse. Particulars: daily ketotifen 10 mg/kg. Here is the method:
as §2, §3

In the case of `CN1CCC(=C2c3ccccc3CC(=O)c3sccc32)CC1` [ketotifen], the NIH3T3 cell viability entry with NIH3T3 cells is on record as “did not significantly reduce”. Besides, the “tumor development after re-challenge (mice out of five long-term survivors per group)” value in the series with MCA205 cells is listed as “developed progressively growing tumors”. Moreover, in the series on K7M2wt tumors [1], the “mRNA levels of Col1A1, CTGF, Has2, Has3” value is given as “A similar effect was observed”. Moreover, the “pimonidazole positive fraction (hypoxia)” value in the series with K7M2wt tumors [2] was “significantly reduced; also recorded: alleviated hypoxia”. In addition, the “tumor opening after cutting (solid stress)” value with MCA205 tumors [3] was “smaller opening”. Further, the “Young's modulus (tissue stiffness)” value in the series on MCA205 tumors [4] stood at 20 kPa. In addition, the “tissue stiffness (Young's modulus)” value with K7M2wt tumors [5] was “similarly benefited”. Further, the “expression of hyaluronan protein (HABP1 staining)” value in the series on MCA205 tumors [6] and with K7M2wt tumors [7] was “reduced” in each case.
